This note sets out measurements from patent US20240166693A1, “METHODS AND COMPOUNDS FOR MODULATING MYOTONIC DYSTROPY 1” (Design Therapeutics, Inc., priority 2020, published 2024).

For one assay, the system named is Myotonic Dystrophy 1 affected patient fibroblasts (Coriell GM04602; 1600 CTG repeats). In words: DM1 foci reduction assay (CAG10-Cy3 FISH, average foci per nucleus). Particulars: Homo sapiens, Fibroblast, 48 h, read-out: Foci Reduction in Fibroblast EC50, 48 h (nM). The assay is classed as cell-based. As for the experimental part: DM1 foci reduction assay methods: Myotonic Dystrophy 1 affected patient fibroblasts (Coriell GM04602; 1600 CTG repeats) and wild type fibroblasts (Coriell GM07492; control line) were cultured separately in Gibco DMEM (1×)+4.5 g/L D-Glucose+L-Glutamine+110 mg/L Sodium Pyruvate, supplemented with 10% FBS and 1× Pen/Strep. Cells were maintained in incubator at 37° C. and 5% CO2 with media refresh every 48-72 hours.
At 90-95% confluency, both cell lines were harvested using Trypl-E then pelleted at 500×g for 5 minutes and were resuspended in media. DM1 fibroblasts were seeded in Agilent 96 well black plates at a density of 5,000 cells/well in 200 μL media; 8 wells were reserved for control fibroblasts. Plates were returned to incubator for 24 hours at 37° C. and 5% CO2.
Compounds were diluted from 10 mM stock to 1 mM in DMSO, then diluted once more to 6 μM (2× concentration) in media. Media was removed from all plates and cells were replenished with 100 μL media. Cells were treated in 8-point dose response, 1:3 fold dilution, 3 μM top dose via addition of 100 μL of 6 μM (2× concentration) compound to the 100 μL media with cells. Plates were returned to incubator for 48-hour time-course experiment at 37° C. and 5% CO2.
Following treatment, compounds were removed, and plates were washed with PBS, then cells were fixed in 75 μL 4% PFA solution for 20 minutes at room temperature. Plates were washed twice with PBS and twice with cold 70% ethanol before permeabilization with 250 μL cold 70% ethanol for 24-72 hours at −20° C.
After permeabilization, plates were washed once with a 30% formamide and 2×SSC buffer and rehydrated in that buffer for 15 minutes at room temperature. Cells were incubated overnight at 37° C. in 75 μL of a hybridization solution containing 30% formamide, 2×SSC, 25 mg/mL dextran sulfate, 2.5 mg/mL BSA, 0.2 μg/mL Herring sperm DNA, 2 mM vanadyl-ribonucleoside complex, and 5 nM CAG10-Cy3 probe.
Plates were washed once with 30% formamide in 2×SSC buffer, then twice with the buffer for 30 minutes at 37° C., 300 RPM in an incubating plate shaker. Cells were stained with 75 μL of 2.5 μg/mL DAPI in PBS for 5 minutes at room temperature. Plates were then washed twice with PBS and stored in 250 μL PBS. Plates were sealed with adhesive foil and wiped down with 70% ethanol.
Cells were imaged on a Cytation5 with a 20× objective sampling from 4 areas of each well. Nuclei were captured under DAPI channel and foci under RFP channel. Plates were analyzed on an average foci per nucleus per well basis.
In the case of `CCN(CC)CCCC[C@H](NC(=O)CCCCOCCNC(=O)c1ccc(C(C)(C)C)cc1)C(=O)N[C@@H](CO)C(=O)NCCOCCOCCOCCOCCOCCNC(=O)CCNC(=O)c1nc(NC(=O)c2cc(NC(=O)CCNC(=O)c3nc(NC(=O)CCCNC(=O)c4cc(NC(=O)c5nc(NC(=O)CCNC(=O)c6cc(NC(=O)c7nccn7C)cn6C)cn5C)cn4C)cn3C)cn2C)cn1C` [Compound 138], the EC50 is 100 to 500 nM.
For `CCN(CC)CCCC[C@H](NC(=O)[C@H](CC(C)C)NC(=O)[C@H](C)NC(=O)[C@H](Cc1ccccc1)NC(=O)c1ccc(C(C)(C)C)cc1)C(=O)N[C@@H](CO)C(=O)NCCOCCOCCOCCOCCOCCNC(=O)c1nc(NC(=O)CCNC(=O)c2cc(NC(=O)c3nc(NC(=O)CCCNC(=O)c4nc(NC(=O)c5nc(CC(=O)CCNC(=O)c6cc(NC(=O)c7nccn7C)cn6C)cn5C)cn4C)cn3C)cn2C)cn1C` [Compound 104], the 50% effective concentration (EC50) was > 500 nM.
Take `CCN(CC)CCCC[C@H](NC(=O)[C@H](CC(C)C)NC(=O)[C@H](C)NC(=O)[C@H](Cc1ccccc1)NC(=O)c1ccc(C(C)(C)C)cc1)C(=O)N[C@@H](CO)C(=O)NCCOCCOCCOCCOCCOCCNC(=O)CCNC(=O)c1cc(NC(=O)c2nc(NC(=O)CCNC(=O)c3nc(NC(=O)CCCNC(=O)c4cc(NC(=O)c5nc(NC(=O)c6cc(NC(=O)CCNC(=O)c7nccn7C)cn6C)cn5C)cn4C)cn3C)cn2C)cn1C` [Compound 285]: the 50% effective concentration (EC50) is > 500 nM.
Take `CCN(CC)CCCC[C@H](NC(=O)[C@H](CC(C)C)NC(=O)[C@H](C)NC(=O)[C@H](Cc1ccccc1)NC(=O)c1ccc(C(C)(C)C)cc1)C(=O)N[C@@H](CO)C(=O)NCCOCCOCCOCCOCCN1CCN(C(=O)CCNC(=O)c2nc(NC(=O)c3cc(NC(=O)CCNC(=O)c4nc(NC(=O)CCCNC(=O)c5cc(NC(=O)c6nc(NC(=O)CCNC(=O)c7cc(NC(=O)c8nccn8C)cn7C)cn6C)cn5C)cn4C)cn3C)cn2C)CC1` [Compound 187]: the concentration giving a half-maximal response (EC50) is 100 to 500 nM.
Turning to `CC(C)C[C@H](NC(=O)[C@H](C)NC(=O)[C@H](Cc1ccccc1)NC(=O)c1ccc(C(C)(C)C)cc1)C(=O)N[C@@H](CCCCN(C)C1CC2CCC1C2)C(=O)N[C@@H](CO)C(=O)NCCOCCOCCNC(=O)c1cc(NC(=O)c2cc(NC(=O)c3nc(NC(=O)c4cc(NC(=O)[C@@H](N)CCNC(=O)c5nc(NC(=O)CCNC(=O)c6cc(NC(=O)c7nccn7C)cn6C)cn5C)cn4C)cn3C)cn2C)cn1C` (stereo partly shown) [Compound 83], the EC50 is > 500 nM.
Turning to `CCN(CC)CCCC[C@H](NC(=O)[C@H](CC(C)C)NC(=O)[C@H](C)NC(=O)[C@H](Cc1ccccc1)NC(=O)c1ccc(C(C)(C)C)cc1)C(=O)N[C@@H](CO)C(=O)NCCOCCOCCOCCOCCOCCNC(=O)c1cc(NC(=O)c2nc(NC(=O)[C@H](N)CCNC(=O)c3cc(NC(=O)c4nc(NC(=O)CCNC(=O)c5cc(NC(=O)c6nccn6C)cn5C)cn4C)cn3C)cn2C)cn1C` [Compound 111], the EC50 was > 500 nM.
For the molecule `CCN(CC)CCCC[C@H](NC(=O)OC(C)(C)C)C(=O)N[C@@H](CO)C(=O)NCCOCCOCCOCCOCCOCCNC(=O)CCNC(=O)c1nc(NC(=O)c2cc(NC(=O)CCNC(=O)c3nc(NC(=O)CCCNC(=O)c4cc(NC(=O)c5nc(NC(=O)CCNC(=O)c6cc(NC(=O)c7nccn7C)cn6C)cn5C)cn4C)cn3C)cn2C)cn1C` [Compound 157], the concentration for a half-maximal effect (EC50) was 100 to 500 nM.
Take `CCN(CC)CCCC[C@H](NC(=O)[C@H](CC(C)C)NC(=O)[C@H](C)NC(=O)[C@H](Cc1ccccc1)NC(=O)c1ccc(C(C)(C)C)cc1)C(=O)N[C@@H](CO)C(=O)NCCOCCOCCOCCOCCOCCNC(=O)c1cc(NC(=O)c2nc(NC(=O)CCNC(=O)c3cc(NC(=O)c4nc(NC(=O)CCCNC(=O)c5cc(NC(=O)c6nc(NC(=O)CCNC(=O)c7cc(NC(=O)c8nccn8C)cn7C)cn6C)cn5C)cn4C)cn3C)cn2C)cn1C` [Compound 130]: the EC50 was < 100 nM.
As to `CCN(CC)CCCC[C@H](NC(=O)[C@H](CC(C)C)NC(=O)[C@H](C)NC(=O)[C@H](Cc1ccccc1)NC(=O)c1ccc(C(C)(C)C)cc1)C(=O)N[C@@H](CO)C(=O)Nc1ccc(C#CC#CCNC(=O)CCNC(=O)c2nc(NC(=O)c3cc(NC(=O)CCNC(=O)c4nc(NC(=O)CCCNC(=O)c5cc(NC(=O)c6nc(NC(=O)CCNC(=O)c7cc(NC(=O)c8nccn8C)cn7C)cn6C)cn5C)cn4C)cn3C)cn2C)cc1` [Compound 96], the EC50 is < 100 nM.
Consider `CCN(CC)CCCC[C@H](NC(=O)[C@H](CC(C)C)NC(=O)[C@H](C)NC(=O)[C@H](Cc1ccccc1)NC(=O)c1ccc(C(C)(C)C)cc1)C(=O)N[C@@H](CO)C(=O)NCCOCCOCCOCCOCCOCCNC(=O)CCNC(=O)c1nc(NC(=O)c2cc(NC(=O)CCNC(=O)c3nc(NC(=O)CCCNC(=O)c4cc(NC(=O)c5nc(NC(=O)CCNC(=O)c6cc(NC(=O)c7nccn7C)cn6C)cn5C)cn4C)cn3C)cn2C)cn1C` [Compound 25], for which the EC50 fell in the range of 100 to 500 nM.
As for `CCN(CC)CCCC[C@H](NC(=O)[C@H](CC(C)C)NC(=O)[C@H](C)NC(=O)[C@H](Cc1ccccc1)NC(=O)c1ccc(C(C)(C)C)cc1)C(=O)N[C@@H](CO)C(=O)NCCOCCOCCOCCNC(=O)CCNC(=O)c1nc(NC(=O)c2cc(NC(=O)CCNC(=O)c3nc(NC(=O)CCCNC(=O)c4cc(NC(=O)c5nc(NC(=O)CCNC(=O)c6cc(NC(=O)c7nccn7C)cn6C)cn5C)cn4C)cn3C)cn2C)cn1C` [Compound 73], the EC50 was < 100 nM.
Regarding `CCN(CC)CCCC[C@H](NC(=O)[C@H](CC(C)C)NC(=O)[C@H](C)NC(=O)[C@H](Cc1ccccc1)NC(=O)c1ccc(C(C)(C)C)cc1)C(=O)N[C@@H](CO)C(=O)NCCOCCOCCOCCOCCOCCOCCOCCOCCOCCOCCNC(=O)CCNC(=O)c1nc(NC(=O)c2cc(NC(=O)CCNC(=O)c3nc(NC(=O)CCCNC(=O)c4cc(NC(=O)c5nc(NC(=O)CCNC(=O)c6cc(NC(=O)c7nccn7C)cn6C)cn5C)cn4C)cn3C)cn2C)cn1C` [Compound 26], the EC50 lay within 100 to 500 nM.
On to `CCN(CC)CCCC[C@H](NC(=O)[C@H](CC(C)C)NC(=O)[C@H](C)NC(=O)[C@H](Cc1ccccc1)NC(=O)c1ccc(C(C)(C)C)cc1)C(=O)N[C@@H](CO)C(=O)NCCOCCOCCN(C)C(=O)CCNC(=O)c1nc(NC(=O)c2cc(NC(=O)CCNC(=O)c3nc(NC(=O)CCCNC(=O)c4cc(NC(=O)c5nc(NC(=O)CCNC(=O)c6cc(NC(=O)c7nccn7C)cn6C)cn5C)cn4C)cn3C)cn2C)cn1C` [Compound 74], for which the EC50 was < 100 nM.

Still in this assay, the particulars now being: Homo sapiens, Fibroblast; DM1 fibroblasts, 48 h treatment, 8-point dose response, 3 μM top dose; read-out: Foci Reduction in Fibroblast EC50, 48 h.
Turning to `CC(=O)c1cc(-c2ccccc2S(C)(=O)=O)c2cc(OCCOCCOCCNC(=O)CCNC(=O)c3nc(NC(=O)c4cc(NC(=O)CCNC(=O)c5nc(NC(=O)CCCNC(=O)c6cc(NC(=O)c7nc(NC(=O)CCNC(=O)c8cc(NC(=O)c9nccn9C)cn8C)cn7C)cn6C)cn5C)cn4C)cn3C)ccn12` [Compound 168], the concentration for a half-maximal effect (EC50) is > 500 nM.
With `Cn1cc(NC(=O)c2nc(NC(=O)CCNC(=O)c3cc(NC(=O)c4nccn4C)cn3C)cn2C)cc1C(=O)NCCCC(=O)Nc1cn(C)c(C(=O)NCCC(=O)Nc2cc(C(=O)Nc3cn(C)c(C(=O)NCCC(=O)NCCOCCOCCn4cc(CCCCN(Cc5ccc(C(=O)NO)cc5)C(=O)Nc5ccccc5)nn4)n3)n(C)c2)n1` [Compound 125], the concentration for a half-maximal effect (EC50) was > 500 nM.
In the case of `Cn1cc(CCn2c(CNCCOCCOCCNC(=O)CCNC(=O)c3nc(NC(=O)c4cc(NC(=O)CCNC(=O)c5nc(NC(=O)CCCNC(=O)c6cc(NC(=O)c7nc(NC(=O)CCNC(=O)c8cc(NC(=O)c9nccn9C)cn8C)cn7C)cn6C)cn5C)cn4C)cn3C)nc(-c3cnn(C)c3)c2-c2ccc(C#N)cc2)cn1` [Compound 171], the concentration for a half-maximal effect (EC50) is > 500 nM.

In general, EC50 refers to the concentration that produces a half-maximal response.
